Consider 90 molecules from a melting point compilation (Tetko et al.; mined from patent text by program, amines drawn as free bases though some values may be those of a salt).

Molecules are shown by their SMILES.

In turn, `CCON(Cc1ccc(F)cc1)C(=O)C1=C(O)C(=O)N(C)C1` came in with a melting point of 113 to 114 °C.
Under `CC(C)(C)c1cc(-c2nn(CCCO)c3ncccc23)cc(C(C)(C)C)c1O` stands 143 to 144 °C; under `Cc1ccc(-c2c(O)nc(S)nc2O)cc1`, 290 to 292 °C; under `c1cc(NC2CC2)ccn1`, 111 to 112 °C.
Regarding `O=C1NC(=O)C(c2ccsc2)O1` (stereo not given), the melting point lay within 133 to 135 °C.
For `Oc1ccc(Oc2ccc(Cl)cc2)cc1` the value was 85 to 86 °C; for `CCOC(=O)/C=C/c1cc(-c2c(CC(=O)Nc3ccc(Cl)cc3C(F)(F)F)c(=O)oc3cc(Cl)c(C)cc23)ccc1F`, 160 to 162 °C; for `COc1c(C)c(C)cc(C)c1C(O)(c1ccccc1)C(C)C` (stereo not given), 80 to 81 °C.
Under `COC1C(OC(=O)N2CCOCC2)CCC2(CO2)C1C1(C)OC1CCC(C)C` (stereo not given) stands 64 to 65 °C; under `CCCC(=O)NCC1Cc2ccc(-c3ccc(=O)[nH]n3)cc2C1` (stereo not given), 204 to 205 °C.
For the molecule `COC(=O)c1cc(=O)n2nc(COC(C)=O)nc2[nH]1`, the melting point was determined as 260 °C.
Under `CN(C)CCSc1ncccc1C(O)c1ccccc1` (stereo not given) stands 88 to 89 °C.
Under `Cn1nc2c(N)nc3ccccc3c2c1CCCCNS(C)(=O)=O` stands 188 to 189 °C.
As for `CCCCN1CCC(O)(c2cccn2Cc2ccccc2F)CC1`, the melting point lay in the range of 132 to 135 °C.
For `N#CC1=C(NN)C(=O)NC1=O`, the melting point is greater than 350 °C.
For `CCc1nc(-c2cccc(C)c2)c(-c2ccnc(N)c2)s1` the value was 144 to 146 °C; for `Clc1ccccc1Oc1ncc2c(-c3cccs3)n[nH]c2n1`, 221 to 223 °C.
The molecule `COC(=O)NCCNC(=O)c1cc(C)c(C(c2cc(F)ccc2F)S(=O)(=O)c2ccc(F)cc2)cn1` (stereo not given) displayed a melting point of 167 to 169 °C.
Under `Cc1cccc(-c2c(Cl)ccc3c2C=C(C(=O)O)C(C(F)(F)F)O3)c1` (stereo not given) stands 222 to 224 °C; under `COC[C@H]1CCCN1S(=O)(=O)c1ccc2c(c1)C(=O)C(=O)N2`, 161 to 164 °C; under `COc1ccc(C(=O)c2c(N)sc3c2CN(C(=O)OCc2ccccc2)C3)cc1OC`, 195 to 196 °C.
For `CCCCCc1ccc(-c2ccc(Cl)s2)cn1` the value was 32 °C; for `CC(C)Nc1nc2c(F)c(F)c(F)cc2[nH]1`, 182 to 184 °C; for `O=C(COc1ccc(CN2CCCC2)cc1)Nc1ccc(Br)cc1`, 143 to 145 °C.
Under `COc1cc2c(Nc3ccc(Cl)cc3F)ncnc2cc1OCCN1CCN(C)CC1` stands 173 to 175 °C; under `C=CCOc1ccc2c(C)c(C#N)c(=O)oc2c1C`, 172 °C.
On to `CCCCCCCCCCN(C[C@H]1CC[C@H](CN(CCCCCCCCCC)C(=O)Nc2ccc(N(C)C)cc2)CC1)C(=O)Nc1ccc(N(C)C)cc1`, for which the melting point was 125 to 127 °C.
For `CC#CCOc1ccc(S(=O)(=O)N(C)[C@H]2CCC[C@H]2C(=O)NO)cc1` the value was 160 to 164 °C; for `ON=Cc1c[nH]c2cccc(OCc3ccccc3)c12`, 206 to 210 °C; for `Cc1c(-c2ccccc2Cl)n(-c2ccccc2Cl)c(-c2ccccc2Cl)cc1=O`, 205 to 207 °C.
For `N#Cc1ccc(Cc2cccc3c2CCN(Cc2cncn2Cc2ccc(C#N)cc2)C3)cc1` the value was 195 to 196 °C.
`CCCOc1cc2c(cc1C1CCCc3oc(/C=C/C(=O)O)cc31)C(C)(C)CCC2(C)C` (stereo not given) gave a melting point of 195 to 196 °C.
Under `O=C(c1ccc(Cl)cc1)c1cc([N+](=O)[O-])ccc1N1CCC(Cc2ccccc2)CC1` stands 211 °C; under `CC12CCC(C(=Cc3ccc(C(=O)O)cc3)C1=O)C2(C)C` (stereo not given), 240 °C.
The molecule `Cc1ccccc1CNCCc1ccc(NC(=N)c2cccs2)cc1` showed a melting point of 105 to 106 °C.
Under `CCC1Cc2c(Br)cccc2C1O[Si](C)(C)C` (stereo not given) stands 133 to 135 °C.
`N#Cc1ccc(-c2cnc(Cl)o2)cc1`: the melting point was found to be 144 °C.
For `CC1Cc2c(c(Cl)cc(F)c2N2C(=O)C3=C(CCCC3)C2=O)O1` (stereo not given) the value was 169 to 171 °C; for `CCSc1cc(C)nc(SCC)c1NC(=O)CSc1nc2ccccc2s1`, 119 to 120 °C.
For `COc1ccc(C(=O)Cc2c(Cl)cncc2Cl)c2c(CC(=O)OCc3ccccc3)coc12` the value was 132 to 133 °C; for `CCOC(=O)CCc1ccc(OCc2ccc(OCc3nc(-c4ccccc4)oc3C)cc2)cc1OCC`, 64 to 65 °C; for `CCc1cc2c(=O)n3cc(C(N)=O)ccc3nc2s1`, 278 to 280 °C.
Under `CCCCSc1nc(N)nc2c1ncn2C1C=CC(CO)C1` (stereo not given) stands 120 to 123 °C; under `COc1cc2c(cc1OC)CN(CC(O)c1ccc([N+](=O)[O-])cc1)CC2` (stereo not given), 130 °C; under `CCNS(=O)(=O)c1cccc(OCc2nc3ccccc3s2)c1`, 111 to 113 °C.
Regarding `Cc1cncn1CC#CCN1CCNC1=O`, the melting point lay in the range of 163 to 167 °C.
Under `CS(=O)(=O)c1ccc(-n2cc(C(F)(F)F)nc2-c2ccc(-c3cccs3)cc2)cc1` stands 95 to 97 °C; under `CNc1nnc(-c2ccc3occ(-c4cccc(OC(F)(F)F)c4)c3c2)o1`, 169 to 170 °C; under `O=C1NC(=O)C(c2cn(CCCO)c3ccccc23)=C1c1ccccc1[N+](=O)[O-]`, 193 to 195 °C.
For `CNC(=O)c1cc(N(C)C)ccc1Nc1nc(Nc2cc3c(cc2OC)CCN(CC(=O)N(C)C)CC3)ncc1Cl` the value was 96 to 110 °C; for `CSc1ccc2c(c1)N(CCCN1CCC(C(O)F)CC1c1ccccc1)c1ccccc1S2` (stereo not given), 60 °C; for `CCn1c(Oc2ccc(F)cc2)nnc1[C@@H](C)N(C)S(=O)(=O)c1ccc(Cl)c(Cl)c1`, 126 °C.
For `Clc1ccc(-c2cc(C3CCN(CCCc4ccccc4)CC3)n[nH]2)cc1` the value was 165 to 167 °C.
For `CC(Oc1ccc(N(C)c2cc3ccc(Cl)cc3c(Cl)n2)cc1)C(=O)O` (stereo not given), the melting point is 136 °C.
Under `CCNC(=O)c1occc1[Si](C)(C)C` stands 69 to 72 °C.
Regarding `CCOC(=O)CN(C(=O)C(F)(F)F)c1ccc(Cl)cc1C#N`, the melting point was 71 to 73 °C.
On to `Cc1c(-c2ccccc2)sc2nc(NCCO)[nH]c(=O)c12`, for which the melting point was in the range of 227 to 229 °C.
Under `O=Cc1c(O)cccc1OCc1ccccc1C(=O)O` stands 218 to 220 °C; under `CC(=O)N(C)C(CCl)C(=O)O` (stereo not given), 104 °C; under `COc1cc(-n2c(C)c(CC(=O)O)c3cc(C)ccc32)nc(OC)n1`, 197 to 198 °C.
`O=C(Nc1ccc([N+](=O)[O-])cc1O)OCc1ccccc1` gave a melting point of 200 °C.
Regarding `CS(=O)(=O)N(Cc1ccccc1)c1ccc(C(=O)CBr)cc1`, the melting point lay in the range of 101 to 103 °C.
For `N#Cc1ccc(-c2ccc(OCCCCCCO)cc2)cc1` the value was 87 to 89 °C; for `Cc1noc(NS(=O)(=O)c2ccccc2-c2ccc(-c3ncco3)cc2CN2CCN(C)C2=O)c1C`, 105 to 115 °C; for `O=C1C(=O)c2ccc(Br)cc2C2=C1SCC1(CCN(CC(O)Cc3ccccc3)CC1)O2` (stereo not given), 82 to 83 °C.
`CC(C)=C(C[C@H](N)C(=O)O)C(=O)O` displayed a melting point of 198 to 199 °C.
Regarding `COc1ccc2oc(N)c(C(N)=O)c(=O)c2c1`, the melting point came out at 270 °C.
For `Cc1cc2c(-c3ccccc3)c(C=O)n(C)c(=O)c2cc1C` the value was 178 to 179 °C; for `COc1ccc(-c2c(Cl)c(CN3C(=O)CCC3=O)nc3sc4c(c23)CCC(=O)C4)cc1`, 257 to 258 °C; for `COc1ccc(Cn2c(C)cc3cnnc(OCc4ccccc4)c32)cc1`, 152 to 156 °C.
Under `COc1ccc2ccc(O)c(N=O)c2c1` stands 122 to 124 °C; under `Cc1ccnc(S(=O)(=O)c2ccccc2)c1`, 128 to 129 °C; under `Cc1cc(Oc2ccc3nc(COc4ccc(CC5SC(=O)NC5=O)cc4)n(C)c3c2)cc(C)c1NC(=O)Nc1ccc(C(F)(F)F)cc1` (stereo not given), 206 to 208 °C.
Take `COC(=O)Nc1nc(OC)nc(OC)n1`: the melting point fell in the range of 118 to 122 °C.
Under `COc1ccc(CCNC(=O)CC(NC(=O)CCNC(=O)c2ccc(C(=N)N)cc2)C(=O)O)cc1` (stereo not given) stands 217 °C; under `O=S(=O)(Nc1ccc2c(OCc3nc(-c4ccc(F)cc4)no3)cccc2c1)C(F)(F)F`, 131 to 132 °C; under `CC(=O)c1ccc(CCC(=O)O)c(C(=O)O)c1`, 76 °C.
For `COc1cc(OC)c2c(=O)[nH]c(-c3cc(-c4ccc(S(C)=O)cc4)cs3)nc2c1` (stereo not given) the value was greater than 300 °C.
For `Cc1ccc(S(=O)(=O)NC(=O)n2sc(Cl)cc2=O)cc1` the value was 125 to 128 °C; for `CC(C)=CCC(C)(C)C(=O)/C=C/[C@@H]1[C@H]2CC(=O)O[C@H]2C[C@H]1OC(=O)c1ccccc1`, 98 °C.
`CC1(C)CCC(C)(C)c2cc(-c3cc4ccc(C(=O)O)cc4o3)ccc21` returned a melting point of 280 °C.
Under `O=C(CCO)N1c2ccccc2CCC1CN1CCN(c2cccc3[nH]ccc23)CC1` (stereo not given) stands 58 to 61 °C; under `COc1cc2ncnc(Nc3ccc(F)c(Cl)c3)c2cc1OCCN1CC(=O)O[C@@H](C)C1`, 212 to 213 °C.
Under `CCCN=C(N)Nc1ccnc(C(CCC)C(=N)N)n1` (stereo not given) stands 202 to 205 °C; under `CC(=O)N1CC(CCN2CC=C(c3ccccc3)CC2)c2ccccc21` (stereo not given), 109 to 111 °C.
Under `CC(C)c1ccc2c(c1)NC(=S)C2=O` stands 169 to 180 °C.
For the molecule `CN(C)c1ccc(C(C)(C(=O)O)c2ccc(N(C)C)cc2)cc1`, the melting point was in the range of 152 to 154 °C.
Molecule `OCCCOc1ccc(-c2ccccc2)cc1` came in with a melting point of 123 to 124 °C.
`N#Cc1cnc(-c2c(Cl)cc(C(F)(F)F)cc2Cl)[nH]1` registered a melting point of 210 to 212 °C.
The molecule `COc1cccc(OC)c1CN1C(=O)C2CCCN2c2ncccc21` (stereo not given) showed a melting point of 200 to 202 °C.
